In article PMC8162404, “Proteomimetic surface fragments distinguish targets by function” (Chemical Science, 2020):
Where two headings read alike, the source gives them in different places.

Assays:
S100B = target: T1, S100B (Homo sapiens, UniProt P04271); test: Pull-down assay with immobilized protein and LSM libraries; assay type: binding; details: 1:1 binding assumed, read-out: Surface mapping KD (apparent)
T1 construct: made in house; host or cells: Escherichia coli BL21(DE3)
T1 sequence (P04271 1-92): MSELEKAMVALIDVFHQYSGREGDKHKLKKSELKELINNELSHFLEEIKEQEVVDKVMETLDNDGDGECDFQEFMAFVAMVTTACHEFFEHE
Experimental: (§1) Pull-down assays with immobilized test proteins and foldameric LSM libraries were carried out. Proteins were equilibrated with LSM probes, and equilibrium bound fractions (FB) were determined from the unbound fractions measured by HPLC-MS methods. Hits were corrected with background binding of the resin. The protocol allowed all binding events to equilibrate irrespective of affinity, specificity, and binding kinetics. This was essential to judge overall druggability and promiscuity. Importantly, the concentration of protein and the total concentration of foldameric LSMs were equimolar, which minimized competition between the probes. This experimental setup approximated independent binding of individual library members. Results were visualized as heat maps of dissociation constants (Fig. 3).
(§2) Pull-down assay and data analysis
(§3) Pull-down assay. LSM sublibraries were screened separately as previously described.(2) Experiments were performed in the following buffers: (i) 20 mM pH 7.4 HEPES, 150 mM NaCl, 5 mM CaCl2 for CaM; (ii) 50 mM pH 7.4 HEPES, 150 mM NaCl, 1 mM TCEP, 1 mM CaCl2 for S100 proteins; (iii) 20 mM pH 7.4 HEPES, 150 mM NaCl, 1 mM TCEP for Gal-1 and (iv) 20 mM pH 7.4 HEPES, 150 mM NaCl for RecQ-WH. Assays were performed in paper filter spin cups (Thermo Scientific) with sample volumes of 100 µl. Hexahistidine-tagged proteins were immobilized on previously washed Co-NTA resin (TALON, Takara Bio USA, Inc., Mountain View, CA) in 64 µM final concentration. LSM sublibrary was added, in which each of the 64 library members were used at a concentration of 1 µM. Samples were incubated at room temperature for 30 min with shaking at 100 rpm. Then, samples were centrifuged at 1000 rpm for 2 min and washed with 100 µl pull-down buffer to remove unbound compounds.
(§4) The control experiments were performed using the same compounds and the resin but without the immobilized protein. In case of competitive assays, competitor peptides were added to LSM sublibrary samples in 200 µM final concentration. In the case of Gal-1, lactose (competitor) was used in a concentration of 10 mM. Experiments were performed at least twice. Mean […]
(§5) LC-MS methods and parameters. HPLC/ESI-MS analysis was used to characterize the samples from the pull-down assay. LC-MS analysis was performed with a Thermo Scientific Dionex UltiMate 3000 HPLC system interfaced to an LTQ ion trap mass spectrometer (Thermo Electron Corp., San Jose, CA, USA). Samples were injected onto an Aeris Widepore XB-C18 (250 x 4.6 mm) analytical HPLC column using gradient elution 5-80 % solution B during 25 minutes. For pull-down samples, eluent composition was 0.1% acetic acid in distilled water (Solution A) and 0.1% acetic acid in acetonitrile (solution B). Mass spectra were acquired in full scan mode from 200 to 2000 m/z range. For overlapping peaks, selective reaction monitoring (SRM) was […]
(§6) MS data analysis. Thermo Xcalibur 2.2 software was used for peak identification and integration. The majority of the foldameric fragments could be resolved independently via HPLC-MS/MS measurements based on molecular weight, MS fragmentation pattern and retention time. Peaks of some foldamers with β3-hIle or β3-hLeu in position R2 could not be resolved, these were integrated and averaged. In the processing method, each sample component was associated to a chromatographic peak based on previously identified mass (m/z) and retention time (ref (2) and Table S7-10). Using ICIS peak detection algorithm, the general detection and integration criteria were: smoothing points: 5, baseline window: 80, area noise factor: 5, peak noise factor: 10. Using these processing setups, all raw data files were reprocessed together and analyzed. Errors in peak identification during the automatic processing were corrected manually.
(§7) Calculation of the discussed parameters
(§8) 1. Bound fractions (FB.) were calculated from the HPLC-MS intensity loss of the LSM probes compared to the control where no protein was immobilized to the resin: […]

Gal-1 = target: T2, Gal-1 (Homo sapiens, UniProt P09382); test: as above; assay type: binding; details: H12 library; 1:1 binding assumed; read-out: Surface mapping KD (apparent)
T2 construct: made in house; host or cells: E. coli BL21(DE3)
T2 sequence (P09382 whole entry): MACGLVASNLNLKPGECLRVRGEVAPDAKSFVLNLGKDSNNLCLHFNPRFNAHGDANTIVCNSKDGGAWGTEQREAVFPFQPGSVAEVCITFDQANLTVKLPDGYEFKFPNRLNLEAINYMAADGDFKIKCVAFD
Experimental: as §1, §2, §3, §4, §5, §6, §7, §8

Compound | Kd (S100B; H12 library) | Kd (S100B; H14 library) | Kd (Gal-1)
N=C(N)NCCC[C@@H](CC(=O)N[C@H]1CCC[C@@H]1C(=O)N[C@H]1CCC[C@@H]1C(=O)N[C@@H](CC(N)=O)CC(=O)N[C@H]1CCC[C@@H]1C(=O)N[C@H]1CCC[C@@H]1C(N)=O)NC(=O)[C@H]1CCC[C@@H]1NC(=O)[C@H]1CCC[C@@H]1N [H12 RN] | 217 µM | – | –
N=C(N)NCCC[C@@H](CC(=O)N[C@H]1CCCC[C@@H]1C(N)=O)NC(=O)[C@H]1CCCC[C@@H]1NC(=O)[C@H]1CCCC[C@@H]1NC(=O)C[C@H](CC(=O)O)NC(=O)[C@H]1CCCC[C@@H]1N [H14 DR] | – | 193 µM | –
CSCC[C@@H](CC(=O)N[C@H]1CCC[C@@H]1C(=O)N[C@H]1CCC[C@@H]1C(=O)N[C@@H](CO)CC(=O)N[C@H]1CCC[C@@H]1C(=O)N[C@H]1CCC[C@@H]1C(N)=O)NC(=O)[C@H]1CCC[C@@H]1NC(=O)[C@H]1CCC[C@@H]1N [H12 MS] | 215 µM | – | 224 µM
N=C(N)NCCC[C@@H](CC(=O)N[C@H]1CCC[C@@H]1C(=O)N[C@H]1CCC[C@@H]1C(N)=O)NC(=O)[C@H]1CCC[C@@H]1NC(=O)[C@H]1CCC[C@@H]1NC(=O)C[C@H](CO)NC(=O)[C@H]1CCC[C@@H]1NC(=O)[C@H]1CCC[C@@H]1N [H12 SR] | 123 µM | – | 402 µM
CSCC[C@@H](CC(=O)N[C@H]1CCC[C@@H]1C(=O)N[C@H]1CCC[C@@H]1C(=O)N[C@@H](CC(=O)O)CC(=O)N[C@H]1CCC[C@@H]1C(=O)N[C@H]1CCC[C@@H]1C(N)=O)NC(=O)[C@H]1CCC[C@@H]1NC(=O)[C@H]1CCC[C@@H]1N [H12 MD] | 471 µM | – | 169 µM
CC[C@H](C)[C@@H](CC(=O)N[C@H]1CCC[C@@H]1C(=O)N[C@H]1CCC[C@@H]1C(=O)N[C@@H](C)CC(=O)N[C@H]1CCC[C@@H]1C(=O)N[C@H]1CCC[C@@H]1C(N)=O)NC(=O)[C@H]1CCC[C@@H]1NC(=O)[C@H]1CCC[C@@H]1N [H12 IA] | 254 µM | – | 469 µM
CSCC[C@@H](CC(=O)N[C@H]1CCC[C@@H]1C(=O)N[C@H]1CCC[C@@H]1C(=O)N[C@H](CC(=O)N[C@H]1CCC[C@@H]1C(=O)N[C@H]1CCC[C@@H]1C(N)=O)[C@@H](C)O)NC(=O)[C@H]1CCC[C@@H]1NC(=O)[C@H]1CCC[C@@H]1N [H12 MT] | 162 µM | – | 169 µM
NCCCC[C@@H](CC(=O)N[C@H]1CCC[C@@H]1C(=O)N[C@H]1CCC[C@@H]1C(=O)N[C@@H](CC(N)=O)CC(=O)N[C@H]1CCC[C@@H]1C(=O)N[C@H]1CCC[C@@H]1C(N)=O)NC(=O)[C@H]1CCC[C@@H]1NC(=O)[C@H]1CCC[C@@H]1N [H12 KN] | 274 µM | – | –
NC(=O)[C@H]1CCCC[C@@H]1NC(=O)C[C@H](Cc1ccc(O)cc1)NC(=O)[C@H]1CCCC[C@@H]1NC(=O)[C@H]1CCCC[C@@H]1NC(=O)C[C@H](CC(=O)O)NC(=O)[C@H]1CCCC[C@@H]1N [H14 DY] | – | 461 µM | –
CC(C)C[C@@H](CC(=O)N[C@H]1CCC[C@@H]1C(=O)N[C@H]1CCC[C@@H]1C(=O)N[C@H](CC(=O)N[C@H]1CCC[C@@H]1C(=O)N[C@H]1CCC[C@@H]1C(N)=O)[C@@H](C)O)NC(=O)[C@H]1CCC[C@@H]1NC(=O)[C@H]1CCC[C@@H]1N [H12 LT] | 216 µM | – | –
C[C@@H](O)[C@@H](CC(=O)N[C@H]1CCC[C@@H]1C(=O)N[C@H]1CCC[C@@H]1C(N)=O)NC(=O)[C@H]1CCC[C@@H]1NC(=O)[C@H]1CCC[C@@H]1NC(=O)C[C@H](CCCCN)NC(=O)[C@H]1CCC[C@@H]1NC(=O)[C@H]1CCC[C@@H]1N [H12 KT] | 226 µM | – | –
C[C@@H](CC(=O)N[C@H]1CCC[C@@H]1C(=O)N[C@H]1CCC[C@@H]1C(N)=O)NC(=O)[C@H]1CCC[C@@H]1NC(=O)[C@H]1CCC[C@@H]1NC(=O)C[C@H](CCCCN)NC(=O)[C@H]1CCC[C@@H]1NC(=O)[C@H]1CCC[C@@H]1N [H12 KA] | 243 µM | – | –
CC(C)C[C@@H](CC(=O)N[C@H]1CCC[C@@H]1C(=O)N[C@H]1CCC[C@@H]1C(=O)N[C@@H](CO)CC(=O)N[C@H]1CCC[C@@H]1C(=O)N[C@H]1CCC[C@@H]1C(N)=O)NC(=O)[C@H]1CCC[C@@H]1NC(=O)[C@H]1CCC[C@@H]1N [H12 LS] | 258 µM | – | –
CC[C@H](C)[C@@H](CC(=O)N[C@H]1CCC[C@@H]1C(=O)N[C@H]1CCC[C@@H]1C(=O)N[C@H](CC(=O)N[C@H]1CCC[C@@H]1C(=O)N[C@H]1CCC[C@@H]1C(N)=O)[C@@H](C)O)NC(=O)[C@H]1CCC[C@@H]1NC(=O)[C@H]1CCC[C@@H]1N [H12 IT] | 216 µM | – | –
N=C(N)NCCC[C@@H](CC(=O)N[C@H]1CCCC[C@@H]1C(N)=O)NC(=O)[C@H]1CCCC[C@@H]1NC(=O)[C@H]1CCCC[C@@H]1NC(=O)C[C@H](CCC(=O)O)NC(=O)[C@H]1CCCC[C@@H]1N [H14 ER] | – | 349 µM | –
NCCCC[C@@H](CC(=O)N[C@H]1CCCC[C@@H]1C(N)=O)NC(=O)[C@H]1CCCC[C@@H]1NC(=O)[C@H]1CCCC[C@@H]1NC(=O)C[C@H](CCC(=O)O)NC(=O)[C@H]1CCCC[C@@H]1N [H14 EK] | – | 324 µM | –
CC[C@H](C)[C@@H](CC(=O)N[C@H]1CCC[C@@H]1C(=O)N[C@H]1CCC[C@@H]1C(=O)N[C@@H](CCCCN)CC(=O)N[C@H]1CCC[C@@H]1C(=O)N[C@H]1CCC[C@@H]1C(N)=O)NC(=O)[C@H]1CCC[C@@H]1NC(=O)[C@H]1CCC[C@@H]1N [H12 IK] | 87 µM | – | –
NCCCC[C@@H](CC(=O)N[C@H]1CCCC[C@@H]1C(=O)N[C@H]1CCCC[C@@H]1C(=O)N[C@@H](CCC(=O)O)CC(=O)N[C@H]1CCCC[C@@H]1C(N)=O)NC(=O)[C@H]1CCCC[C@@H]1N [H14 KE] | – | 324 µM | –
NCCCC[C@@H](CC(=O)N[C@H]1CCC[C@@H]1C(=O)N[C@H]1CCC[C@@H]1C(N)=O)NC(=O)[C@H]1CCC[C@@H]1NC(=O)[C@H]1CCC[C@@H]1NC(=O)C[C@H](CO)NC(=O)[C@H]1CCC[C@@H]1NC(=O)[C@H]1CCC[C@@H]1N [H12 SK] | 401 µM | – | –
N=C(N)NCCC[C@@H](CC(=O)N[C@H]1CCC[C@@H]1C(=O)N[C@H]1CCC[C@@H]1C(=O)N[C@@H](CCC(N)=O)CC(=O)N[C@H]1CCC[C@@H]1C(=O)N[C@H]1CCC[C@@H]1C(N)=O)NC(=O)[C@H]1CCC[C@@H]1NC(=O)[C@H]1CCC[C@@H]1N [H12 RQ] | 210 µM | – | –
C[C@@H](CC(=O)N[C@H]1CCC[C@@H]1C(=O)N[C@H]1CCC[C@@H]1C(=O)N[C@@H](CCCNC(=N)N)CC(=O)N[C@H]1CCC[C@@H]1C(=O)N[C@H]1CCC[C@@H]1C(N)=O)NC(=O)[C@H]1CCC[C@@H]1NC(=O)[C@H]1CCC[C@@H]1N [H12 AR] | 219 µM | – | –
C[C@@H](O)[C@@H](CC(=O)N[C@H]1CCC[C@@H]1C(=O)N[C@H]1CCC[C@@H]1C(=O)N[C@@H](CCCCN)CC(=O)N[C@H]1CCC[C@@H]1C(=O)N[C@H]1CCC[C@@H]1C(N)=O)NC(=O)[C@H]1CCC[C@@H]1NC(=O)[C@H]1CCC[C@@H]1N [H12 TK] | 253 µM | – | –
NC(=O)[C@H]1CCC[C@@H]1NC(=O)[C@H]1CCC[C@@H]1NC(=O)C[C@H](Cc1c[nH]c2ccccc12)NC(=O)[C@H]1CCC[C@@H]1NC(=O)[C@H]1CCC[C@@H]1NC(=O)C[C@H](CC(=O)O)NC(=O)[C@H]1CCC[C@@H]1NC(=O)[C@H]1CCC[C@@H]1N [H12 DW] | – | – | 240 µM
NC(=O)[C@H]1CCC[C@@H]1NC(=O)[C@H]1CCC[C@@H]1NC(=O)C[C@H](CO)NC(=O)[C@H]1CCC[C@@H]1NC(=O)[C@H]1CCC[C@@H]1NC(=O)C[C@H](CC(=O)O)NC(=O)[C@H]1CCC[C@@H]1NC(=O)[C@H]1CCC[C@@H]1N [H12 DS] | – | – | 199 µM
